Legend:
hPPARα = molecular target: T1, hPPARα (Homo sapiens, UniProt Q07869); assay: Test A: transient transfection assay in HepG2 cells, Gal4-PPAR chimeric receptor, luciferase reporter (hPPARα); type: cell-based; conditions: HepG2 cells transfected with hPPARα chimeric receptor; 24 hours incubation; compound 50 μM to 50 pM; read-out: Hep G2-hα EC50
T1 sequence (Q07869 200-468 limits assumed): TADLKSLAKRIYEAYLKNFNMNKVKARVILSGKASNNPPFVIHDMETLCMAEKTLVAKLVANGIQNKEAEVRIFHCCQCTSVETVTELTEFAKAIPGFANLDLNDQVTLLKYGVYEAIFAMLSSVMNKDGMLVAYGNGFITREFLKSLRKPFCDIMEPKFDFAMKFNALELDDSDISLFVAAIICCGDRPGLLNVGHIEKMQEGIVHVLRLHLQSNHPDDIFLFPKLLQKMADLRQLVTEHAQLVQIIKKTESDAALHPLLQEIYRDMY
Experimental: (§1) 1. Test A. Transient Transfections Assay Using the HepG2 Hepatoma Cell Line.
HepG2 cells were transiently transfected with an expression plasmids encoding hPPARα, hPPARβ or mPPARγ chimeric receptors and a reporter containing the yeast upstream activating sequence (UAS) upstream of the viral E1B promoter controlling a luciferase reporter gene. In addition, the plasmid pRSVβ-gal was used to control for transfection efficiency. HepG2 cells were grown in DMEM supplemented with 10% FBS and 1 μM non-essential amino acid. On the first day, cells were split into 100 mm dishes at 2.5×10^6/dish and incubated overnight at 37C.°/5% CO2. On the second day the cells were transiently transfected with plasmid DNA encoding a chimeric receptor, the luciferase reporter gene; and β-gal. For each 100 mm dish, 15 μg of lucifease reporter (PG5E1b) DNA, 15 μg of Gal4-pPAR chimeric receptor DNA, and 1.5 μg of μ-gal plasmid DNA were mixed with 1.4 ml of opti-MEM in the tube. 28 μl of LipoFectamine-2000 reagent was added to 1.4 ml of opti-MEM in the tube, and incubate for 5 min at RT. The diluted Lipofectamine-2000 reagent was combined with the DNA mixture, and incubate for 20 min at RT. After fresh medium was added to each 100 mm dish of cells, 2.8 ml of Lipofectamine2000-DNA mixture was added dropwise to the 100 mm dish containing 14 ml of medium, and incubate 37° C. overnight. On day three cells were trypsinized off the 100 mm dishes and re-plated on 96 well plates. Cells were plated at 2.5×10^4 cells per well in 150 μl of media and 50 μl of compound diluted by media was added. The concentrations of reference agents and test compound added were in the range from 50 μM to 50 pM. After addition of compounds, the plates were incubated at 37° C. for 24 hours. Subsequently cells were washed once with 100 μl of PBS, lysed, and processed for measuring luciferase and μ-gal activity using Dual-Light luciferase kit from Tropix®, according to the manufacturer's recommendations, on an EG&G Bethold MicroLumat LB96P luminometer. EC50 values were obtained using the GraphPad Prism™ program. […] Accordingly, the compounds of the present invention should find considerable therapeutic applications for hypercholesterolemia and hyperlipidemia.

hPPARβ = molecular target: T2, hPPARβ (Homo sapiens, UniProt Q03181); assay: Test A: transient transfection assay in HepG2 cells, Gal4-PPAR chimeric receptor, luciferase reporter (hPPARβ); type: cell-based; conditions: HepG2 cells transfected with hPPARβ chimeric receptor; 24 hours incubation; compound 50 μM to 50 pM; read-out: Hep G2-hβ EC50
T2 sequence (Q03181 211-441 limits assumed): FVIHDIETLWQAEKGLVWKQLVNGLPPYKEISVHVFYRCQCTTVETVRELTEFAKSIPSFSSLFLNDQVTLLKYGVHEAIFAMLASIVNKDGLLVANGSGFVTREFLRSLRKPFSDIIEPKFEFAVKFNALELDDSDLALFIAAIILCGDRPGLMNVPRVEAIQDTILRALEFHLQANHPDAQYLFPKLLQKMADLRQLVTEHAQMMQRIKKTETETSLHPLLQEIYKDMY
Experimental: as §1
HepG2 cells were transiently transfected with an expression plasmids encoding hPPARα, hPPARβ or mPPARγ chimeric receptors and a reporter containing the yeast upstream activating sequence (UAS) upstream of the viral E1B promoter controlling a luciferase reporter gene. In addition, the plasmid pRSVβ-gal was used to control for transfection efficiency. HepG2 cells were grown in DMEM supplemented with 10% FBS and 1 μM non-essential amino acid. On the first day, cells were split into 100 mm dishes at 2.5×10^6/dish and incubated overnight at 37C.°/5% CO2. On the second day the cells were transiently transfected with plasmid DNA encoding a chimeric receptor, the luciferase reporter gene; and β-gal. For each 100 mm dish, 15 μg of lucifease reporter (PG5E1b) DNA, 15 μg of Gal4-pPAR chimeric receptor DNA, and 1.5 μg of μ-gal plasmid DNA were mixed with 1.4 ml of opti-MEM in the tube. 28 μl of LipoFectamine-2000 reagent was added to 1.4 ml of opti-MEM in the tube, and incubate for 5 min at RT. The diluted Lipofectamine-2000 reagent was combined with the DNA mixture, and incubate for 20 min at RT. After fresh medium was added to each 100 mm dish of cells, 2.8 ml of Lipofectamine2000-DNA mixture was added dropwise to the 100 mm dish containing 14 ml of medium, and incubate 37° C. overnight. On day three cells were trypsinized off the 100 mm dishes and re-plated on 96 well plates. Cells were plated at 2.5×10^4 cells per well in 150 μl of media and 50 μl of compound diluted by media was added. The concentrations of reference agents and test compound added were in the range from 50 μM to 50 pM. After addition of compounds, the plates were incubated at 37° C. for 24 hours. Subsequently cells were washed once with 100 μl of PBS, lysed, and processed for measuring luciferase and μ-gal activity using Dual-Light luciferase kit from Tropix®, according to the manufacturer's recommendations, on an EG&G Bethold MicroLumat LB96P luminometer. EC50 values were obtained using the GraphPad Prism™ program.

Row | SMILES | EC50 (hPPARα) [µM] | EC50 (hPPARβ) [µM] | melting point [°C]
1 | Cc1nc(-c2ccc(C(F)(F)F)cc2)sc1CSc1ccc2c(c1)CC(CC(=O)O)O2 (stereo not shown) [Example 4, {5-[4-Methyl-2-(4-trifluoromethyl-phenyl)-thiazol-5-ylmethylsulfanyl]-2,3-dihydro-benzofuran-2-yl}-acetic acid] | 0.899 | 1.54 | –
2 | COc1cc2c(cc1SCc1sc(-c3ccc(C(F)(F)F)cc3)nc1C)CCC2CC(=O)O (stereo not shown) [Example 19, {6-Methoxy-5-[4-methyl-2-(4-trifluoromethyl-phenyl)-thiazol-5-ylmethylsulfanyl]-indan-1-yl}-acetic acid] | 0.042 | 0.113 | –
3 | Cc1nc(-c2ccc(C(F)(F)F)cc2)sc1CSc1ccc2c(c1)CCCN2CC(=O)O [Example 11, {6-[4-methyl-2-(4-trifluoromethyl-phenyl)-thiazol-5-ylmethylsulfanyl]-3,4-dihydro-2H-quinolin-1-yl}-acetic acid] | 1.93 | 0.286 | –
4 | Cc1nc(-c2ccc(C(F)(F)F)cc2)sc1CSc1ccc2c(c1)CCC(=O)N2CC(=O)O [Example 12] | – | 0.896 | –
5 | COc1cc2c(cc1SCc1sc(-c3ccc(C(F)(F)F)cc3)nc1C)CCC(CC(=O)O)C2 (stereo not shown) [Example 13, {7-Methoxy-6-[4-methyl-2-(4-trifluoromethyl-phenyl)-thiazol-5-ylmethylsulfanyl]-1,2,3,4-tetrahydro-naphthalen-2-yl}-acetic acid] | 1.19 | 0.0241 | –
6 | Cc1nc(-c2ccc(C(F)(F)F)cc2)sc1CSc1ccc2c(c1)CC(C(=O)O)CO2 (stereo not shown) [Example 17, 6-[4-methyl-2-(4-trifluoromethyl-pheny)-thiazol-5-ylmethylsulfanyl]-chroman-3-carboxylic acid] | 2.19 | 2.13 | 139 to 140
7 | Cc1nc(-c2ccc(C(F)(F)F)cc2)sc1CSc1ccc2c(c1)CC(C(=O)O)C2 (stereo not shown) [Example 1, 5-[4-methyl-2-(4-trifluoromethyl-phenyl)-thiazol-5-ylmethylsulfanyl]-indan-2-carboxylic acid] | 0.384 | 0.178 | –
8 | Cc1nc(-c2ccc(C(F)(F)F)cc2)sc1CSc1ccc2c(c1)CCC(C(=O)O)O2 (stereo not shown) [Example 3] | 0.917 | 0.762 | –
9 | Cc1nc(-c2ccc(C(F)(F)F)cc2)sc1CSc1ccc2oc(C(=O)O)cc2c1 [Example 6, 5-[4-methyl-2-(4-trifluoromethyl-phenyl)-thiazol-5-ylmethylsulfanyl]-benzofuran-2-carboxylic acid] | 2.04 | – | 207 to 209
10 | COc1cc2on(CC(=O)O)c(=O)c2cc1SCc1sc(-c2ccc(C(F)(F)F)cc2)nc1C [Example 22, 6-Methoxy-5-[4-Methyl-2-(4-trifluoromethyl-pheny)-thiazol-5-ylmethylsulfanyl]-3-oxo-3H-benzo[d]isoxazo-2-yl-acetic-acid] | – | – | 245 to 247
11 | Cc1nc(-c2ccc(C(F)(F)F)cc2)sc1CSc1ccc2c(c1)C=C(C(=O)O)CO2 [Example 16, 6-[4-methyl-2-(4-trifluoromethyl-pheny)-thiazol-5-ylmethylsulfanyl]-2H-chromene-3-carboxylic acid] | – | 2.21 | –
12 | Cc1nc(-c2ccc(C(F)(F)F)cc2)sc1CSc1ccc2c(c1)CCC(CC(=O)O)O2 (stereo not shown) [Example 5] | 3.74 | 0.0083 | –
13 | Cc1nc(-c2ccc(C(F)(F)F)cc2)sc1CSc1ccc2c(c1)CCC(CC(=O)O)C2=O (stereo not shown) [Example 7, {6-[4-Methyl-2-(4-trifluoromethylphenyl)thiazol-5-ylmethylsulfanyl]-1-oxo-3,4-dihydro-1H-naphthalen-2-yl}-acetic acid] | – | 0.614 | –
14 | Cc1nc(-c2ccc(C(F)(F)F)cc2)sc1CSc1ccc2c(c1)CCC(C)(CC(=O)O)O2 (stereo not shown) [Example 8, {2-methyl-6-[4-methyl-2-(4-trifluoromethyl-phenyl)-thiazol-5-ylmethylsulfanyl]-chroman-2-yl}-acetic acid] | – | 3.47 | –
15 | Cc1nc(-c2ccc(C(F)(F)F)cc2)sc1CSc1ccc2c(c1)CC(CC(=O)O)CO2 (stereo not shown) [Example 18, 6-[4-methyl-2-(4-trifluoromethyl-pheny)-thiazol-5-ylmethylsulfanyl]-chroman-3-yl-acetic acid] | 1000 | 0.394 | 149 to 149.5
16 | COc1cc2c(cc1SCc1sc(-c3ccc(C(F)(F)F)cc3)nc1C)CCC(CC(=O)O)O2 (stereo not shown) [Example 14, 7-methoxy-6-[4-methyl-2-(4-trifluoromethyl-pheny)-thiazol-5-ylmethylsulfanyl]-chroman-2-yl-acetic acid] | – | 0.019 | –
17 | Cc1nc(-c2ccc(C(F)(F)F)cc2)sc1CSc1ccc2c(c1)CC(CC(=O)O)C2 (stereo not shown) [Example 2, {5-[4-methyl-2-(4-trifluoromethyl-phenyl)-thiazol-5-ylmethylsulfanyl]-indan-2-yl}-acetic acid] | 1.96 | 0.267 | –
18 | Cc1nc(-c2ccc(C(F)(F)F)cc2)sc1CSc1ccc2c(c1)CCN(CC(=O)O)C2 [Example 10, {6-[4-Methyl-2-(4-trifluoromethyl-phenyl)-thiazol-5-ylmethylsulfanyl]-3,4-dihydro-1H-isoquinolin-2-yl}-acetic acid] | – | 0.111 | –
19 | Cc1cc2c(cc1SCc1sc(-c3ccc(C(F)(F)F)cc3)nc1C)CCC(CC(=O)O)O2 (stereo not shown) [Example 15, 7-Methyl-6-[4-methyl-2-(4-trifluoromethyl-pheny)-thiazol-5-ylmethylsulfanyl]-chroman-2-yl-acetic acid] | 1.3 | 0.252 | –
20 | Cc1nc(-c2ccc(C(F)(F)F)cc2)sc1COc1ccc2c(CC(=O)O)csc2c1 [Example 23, {6-[4-Methyl-2-(4-trifluoromethyl-phenyl)-thiazol-5-ylmethoxy]-benzo[b]thiophen-3-yl}-acetic acid] | 0.572 | – | –

From patent US7109222B2, “Compounds that modulate PPAR activity and methods of preparation” (Warner-Lambert Company, LLC, priority 2002, dated 2006)
